The values below come from article PMC7555312, “Functional Characterization of Temporin-SHe, a New Broad-Spectrum Antibacterial and Leishmanicidal Temporin-SH Paralog from the Sahara Frog (Pelophylax saharicus)” (International Journal of Molecular Sciences, 2020).

The subject of data set [1] is E. faecalis. More on the design: method as in 2 sources, ref 48 = [48]; PMID 28402481; doi:10.1093/abbs/gmx032; 48. Wang X. Ren S. Guo C. Zhang W. Zhang X. Zhang B. Li S. Ren J. Hu Y. Wang H. Identification and functional analyses of novel antioxidant peptides and antimicrobial peptides from skin secretions of ||| ref 49 = [49]; PMID 25066917; doi:10.1016/j.biochi.2014.07.013; 49. Guo C. Hu Y. Li J. Liu Y. Li S. Yan K. Wang X. Liu J. Wang H. Identification of multiple peptides with antioxidant and antimicrobial activities from skin and its secretions of Hylarana taipehensis. The conditions noted are these: cited from earlier work.

The test system of data set [2] is S. aureus. Set-up: method as in 3 sources, one per row (each row's own in cited_ref): ref 46 = [46]; PMID 14499272; doi:10.1016/S0196-9781(03)00193-1; 46. Ali M.F. Knoop F.C. Vaudry H. Conlon J.M. Characterization of novel antimicrobial peptides from the skins of frogs of the Rana esculenta complex Peptides 2003 24 955 961 10.1016/S0196-9781(03)0019 ||| ref 48 = [48]; PMID 28402481; doi:10.1093/abbs/gmx032; 48. Wang X. Ren S. Guo C. Zhang W. Zhang X. Zhang B. Li S. Ren J. Hu Y. Wang H. Identification and functional analyses of novel antioxidant peptides and antimicrobial peptides from skin secretions of ||| ref 49 = [49]; PMID 25066917; doi:10.1016/j.biochi.2014.07.013; 49. Guo C. Hu Y. Li J. Liu Y. Li S. Yan K. Wang X. Liu J. Wang H. Identification of multiple peptides with antioxidant and antimicrobial activities from skin and its secretions of Hylarana taipehensis. Conditions: cited from earlier work.

In data set [3] the test system is Nocardia asteroides. More on the design: method as in 2 sources, ref 48 = [48]; PMID 28402481; doi:10.1093/abbs/gmx032; 48. Wang X. Ren S. Guo C. Zhang W. Zhang X. Zhang B. Li S. Ren J. Hu Y. Wang H. Identification and functional analyses of novel antioxidant peptides and antimicrobial peptides from skin secretions of ||| ref 49 = [49]; PMID 25066917; doi:10.1016/j.biochi.2014.07.013; 49. Guo C. Hu Y. Li J. Liu Y. Li S. Yan K. Wang X. Liu J. Wang H. Identification of multiple peptides with antioxidant and antimicrobial activities from skin and its secretions of Hylarana taipehensis. Conditions: cited from earlier work.

Data set [4] relates to Gram-negative bacteria (E. coli, P. aeruginosa, and K. pneumoniae). Set-up: method as in PMID 28402481. The conditions noted are these: cited from earlier work.
The test system of data set [5] is Candida species (C. albicans and C. glabrata). More on the design: method as in PMID 28402481. The conditions noted are these: cited from earlier work.
Data set [6] deals with L. mexicana amastigotes. Conditions: cited from earlier work. The text has this: Temporin-SHe represents an additional temporin with antiparasitic properties. This peptide was able to kill promastigote forms of the human parasite Leishmania, responsible for visceral (L. infantum), cutaneous (L. major) and muco-cutaneous (L. braziliensis) leishmaniasis. […] Until today, only six temporins (Ta, Tb, SHa, SHd, Tl and Tf) have been described as antiparasitic peptides and very few AMPs of other families are active against parasites (The Antimicrobial Peptide ...

In data set [7] the test system is E. coli. Set-up: method as in PMID 14499272. The conditions noted are these: cited from earlier work.
In data set [8] the test system is human THP-1 monocytes. The conditions noted are these: taken from literature; cited from earlier work.
The test system of data set [9] is L. ivanovii (Li4pVS2). The conditions noted are these: liquid growth inhibition (CLSI), 10^6 CFU/mL in brain heart infusion (BHI) medium, 37 °C, 18–20 h, OD 630 nm; mean of three independent experiments in triplicate. Here is the method:
Antibacterial activity of temporin-SHe was evaluated against Gram-positive bacteria including S. aureus strains (ATCC 25923, ST1065), antibiotic-resistant S. aureus strains (ATCC 43300, ATCC BAA-44), E. faecalis (ATCC 29212), B. megaterium, and L. ivanovii (Li4pVS2), and Gram-negative bacteria including E. coli strains (ATCC 25922, ATCC 35218, ML-35p), S. enterica (serotype Enteritidis), P. aeruginosa (ATCC 27853), A. baumannii (ATCC 19606) and K. pneumoniae (ATCC 13883). Antifungal activity was evaluated against C. albicans (ATCC 90028), C. parapsilosis (ATCC 22019) and S. cerevisiae. ATCC strains were purchased from American-Type Culture Collection (ATCC, Virginia, VA, USA). Antiparasitic activity was determined against promastigotes of several species of Leishmania responsible for visceral, cutaneous and mucocutaneous leishmaniases: L. infantum (strain MHOM/MA/67/ITMAP-263), L. major (strain MHOM/SU/73/5-ASKH), and L. braziliensis (strain MHOM/BR/75/M2904), respectively. Cytotoxicity was assessed against human red blood cells and THP-1 monocytes. Peripheral blood was obtained from healthy adult donors (Établissement Français du Sang, Paris, France). All donors signed informed consent allowing the use of their blood for research purposes.
Antimicrobial activity was assessed with a liquid growth inhibition assay performed according to a previously described protocol using the Clinical and Laboratory Standards Institute (CLSI) guidelines. Briefly, in 96-well microtitration plates, mid-log-phase bacteria diluted to 10^6 CFU/mL in Mueller–Hinton (MH) broth were added to different concentrations of synthetic temporin-SHe (1–200 µM, final concentrations) and incubated at 37 °C for 18–20 h, under shaking (150 rpm). For E. faecalis, L. ivanovii and yeasts/fungi, 10^6 CFU/mL suspensions were prepared in LB broth, brain heart infusion (BHI) medium and Yeast Peptone Dextrose (YPD) medium, respectively, and incubation was performed at 30 °C for yeasts/fungi. […] MIC values represent the average of three independent experiments, each performed in triplicate with negative (no peptide) and positive (formaldehyde 0.7%) controls.

Where no end group is shown, it is not given here.

By MIC is commonly meant the least concentration at which growth counts as inhibited.

With “FLPLLFGALSTLLPKIF-NH2 [Temporin-TP3, temporin isolated from skin secretions of Hylarana taipehensis]”, the results for the MIC in [1], in data set [2] and in data set [3] were 50 µM, 25 µM and 12.5 µM, respectively.

Take “FLPFLAGLFGKIF-NH2 [Temporin-HB2, temporin isolated from the Hubei Frog Pelophylax hubeiensis]”: the “activity against Gram-negative bacteria” value in data set [4] was “No activity”. The minimal inhibitory concentration (MIC) is given as 19 µM in data set [1], 150 µM in data set [2] and 75 µM in data set [3]. The “activity against Candida species” value in data set [5] is reported as “No activity”.

With “FLSGIVGMLGKLF-NH2 [Temporin-SHa, 13-residue temporin-SH from Pelophylax saharicus]”, the “less efficiency against L. mexicana amastigotes (compared with promastigotes)” value in [6] was “approximately 10 fold”.

“FLPVIAGLLSKLF-NH2 [Temporin-1Ec, temporin isolated from Pelophylax lessonae/ridibundus]”: the MIC is given as 8 µM in [2] and greater than 100 µM in data set [7].

Turning to “FLPAALAGIGGILGKLF-NH2 [Temporin-SHd, reference compound]”, the “LC50 (lethal concentration 50)” value in data set [8] is given as 66 µM. In data set [9], this substance came in with an MIC of 10 µM.
